Key:
Assay in all cases: relative viability (nuclei count vs DMSO), 5 days (fraction); higher = more cells survive
Omipalisib + Dasatinib = compound: COc1ncc(-c2ccc3nccc(-c4ccnnc4)c3c2)cc1NS(=O)(=O)c1ccc(F)cc1F [Omipalisib] + Cc1nc(Nc2ncc(C(=O)Nc3c(C)cccc3Cl)s2)cc(N2CCN(CCO)CC2)n1 [Dasatinib] (partner 0.075 µM)
In short: (§1)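 Medians of duplicate plates are given as relative viability. That measure is the nuclei count in treated wells divided by the count in vehicle wells. Counts were taken on 4× images of lung cancer cell lines in 1536-well plates, 5 days after pin-tool dosing the day after seeding with one drug alone or a fixed anchor-drug dose plus five library-drug doses (not always all listed) in √10 steps.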

Omipalisib + Palbociclib = compound: COc1ncc(-c2ccc3nccc(-c4ccnnc4)c3c2)cc1NS(=O)(=O)c1ccc(F)cc1F [Omipalisib] + CC(=O)c1c(C)c2cnc(Nc3ccc(N4CCNCC4)cn3)nc2n(C2CCCC2)c1=O [Palbociclib] (partner 0.5 µM)
In short: as §1

Omipalisib + Lapatinib = compound: COc1ncc(-c2ccc3nccc(-c4ccnnc4)c3c2)cc1NS(=O)(=O)c1ccc(F)cc1F [Omipalisib] + CS(=O)(=O)CCNCc1ccc(-c2ccc3ncnc(Nc4ccc(OCc5cccc(F)c5)c(Cl)c4)c3c2)o1 [Lapatinib] (partner 2 µM)
In short: as §1

Omipalisib + Alpelisib = compound: COc1ncc(-c2ccc3nccc(-c4ccnnc4)c3c2)cc1NS(=O)(=O)c1ccc(F)cc1F [Omipalisib] + Cc1nc(NC(=O)N2CCC[C@H]2C(N)=O)sc1-c1ccnc(C(C)(C)C(F)(F)F)c1 [Alpelisib] (partner 2 µM)
In short: as §1

Omipalisib + Pictilisib = compound: COc1ncc(-c2ccc3nccc(-c4ccnnc4)c3c2)cc1NS(=O)(=O)c1ccc(F)cc1F [Omipalisib] + CS(=O)(=O)N1CCN(Cc2cc3nc(-c4cccc5[nH]ncc45)nc(N4CCOCC4)c3s2)CC1 [Pictilisib] (partner 1 µM)
In short: as §1

Omipalisib + Trametinib = compound: COc1ncc(-c2ccc3nccc(-c4ccnnc4)c3c2)cc1NS(=O)(=O)c1ccc(F)cc1F [Omipalisib] + CC(=O)Nc1cccc(-n2c(=O)n(C3CC3)c(=O)c3c(Nc4ccc(I)cc4F)n(C)c(=O)c(C)c32)c1 [Trametinib] (partner 0.02 µM)
In short: as §1

Cell Line | relative viability (Omipalisib + Dasatinib; first compound 0.0003 µM) | relative viability (Omipalisib + Dasatinib; first compound 0.003 µM) | relative viability (Omipalisib + Dasatinib; first compound 0.03 µM) | relative viability (Omipalisib + Palbociclib; first compound 0.0003 µM) | relative viability (Omipalisib + Palbociclib; first compound 0.003 µM) | relative viability (Omipalisib + Palbociclib; first compound 0.03 µM) | relative viability (Omipalisib + Lapatinib; first compound 0.0003 µM) | relative viability (Omipalisib + Lapatinib; first compound 0.003 µM) | relative viability (Omipalisib + Lapatinib; first compound 0.03 µM) | relative viability (Omipalisib + Alpelisib; first compound 0.0003 µM) | relative viability (Omipalisib + Alpelisib; first compound 0.003 µM) | relative viability (Omipalisib + Alpelisib; first compound 0.03 µM) | relative viability (Omipalisib + Pictilisib; first compound 0.0003 µM) | relative viability (Omipalisib + Pictilisib; first compound 0.003 µM) | relative viability (Omipalisib + Pictilisib; first compound 0.03 µM) | relative viability (Omipalisib + Trametinib; first compound 0.0003 µM) | relative viability (Omipalisib + Trametinib; first compound 0.003 µM) | relative viability (Omipalisib + Trametinib; first compound 0.03 µM)
NCI-H1355 | 0.596 | 0.402 | 0.307 | 0.358 | 0.239 | 0.198 | 0.942 | 0.665 | 0.54 | 0.716 | 0.55 | 0.336 | 0.499 | 0.295 | 0.297 | 0.361 | 0.263 | 0.194
NCI-H2126 | 0.545 | 0.366 | 0.301 | 0.344 | 0.344 | 0.317 | 0.759 | 0.46 | 0.374 | 0.696 | 0.583 | 0.474 | 0.518 | 0.463 | 0.435 | 0.487 | 0.397 | 0.327
HCC-827 | 0.194 | 0.233 | 0.147 | 0.471 | 0.381 | 0.266 | 0.192 | 0.158 | 0.187 | 1.06 | 0.943 | 0.389 | 0.864 | 0.974 | 0.533 | 0.472 | 0.37 | 0.202
NCI-H661 | 0.822 | 0.573 | 0.312 | 0.403 | 0.363 | 0.313 | 0.366 | 0.294 | 0.196 | 0.804 | 0.612 | 0.478 | 0.567 | 0.37 | 0.365 | 0.605 | 0.454 | 0.409
NCI-H1755 | 0.445 | 0.271 | 0.236 | 0.428 | 0.421 | 0.362 | 1.04 | 0.924 | 0.783 | 0.949 | 0.878 | 0.514 | 0.426 | 0.353 | 0.344 | 0.736 | 0.695 | 0.356
HCC-15 | 0.552 | 0.349 | 0.42 | 0.748 | 0.614 | 0.521 | 0.81 | 0.779 | 0.795 | 0.922 | 0.73 | 0.789 | 0.698 | 0.599 | 0.702 | 0.32 | 0.207 | 0.165
NCI-H2009 | 0.272 | 0.215 | 0.157 | 0.204 | 0.176 | 0.179 | 0.997 | 0.943 | 0.581 | 1.16 | 1.12 | 0.994 | 0.752 | 0.797 | 0.52 | 0.278 | 0.16 | 0.184
SK-MES-1 | 0.316 | 0.174 | 0.136 | 0.273 | 0.271 | 0.261 | 0.447 | 0.308 | 0.364 | 0.847 | 0.66 | 0.458 | 0.423 | 0.318 | 0.347 | 0.512 | 0.419 | 0.285
NCI-H2023 | 0.446 | 0.213 | 0.114 | 0.383 | 0.213 | 0.0832 | 0.684 | 0.374 | 0.179 | 0.513 | 0.523 | 0.344 | 0.204 | 0.181 | 0.179 | 0.492 | 0.358 | 0.149
NCI-H2405 | 0.213 | 0.204 | 0.166 | 0.507 | 0.392 | 0.312 | 0.949 | 0.6 | 0.303 | 0.79 | 0.633 | 0.359 | 0.433 | 0.389 | 0.355 | 0.486 | 0.37 | 0.271
HCC-78 | 0.359 | 0.313 | 0.219 | 0.48 | 0.411 | 0.414 | 0.329 | 0.567 | 0.386 | 0.297 | 0.296 | 0.193 | 0.198 | 0.183 | 0.189 | 0.596 | 0.558 | 0.275
LCLC-97TM1 | 0.883 | 0.74 | 0.472 | 0.202 | 0.14 | 0.0751 | 0.976 | 0.323 | 0.223 | 0.238 | 0.227 | 0.145 | 0.181 | 0.15 | 0.166 | 0.179 | 0.104 | 0.117
NCI-H1944 | 0.194 | 0.17 | 0.156 | 0.264 | 0.25 | 0.169 | 0.785 | 0.493 | 0.385 | 0.884 | 0.638 | 0.441 | 0.363 | 0.301 | 0.28 | 0.355 | 0.246 | 0.197
NCI-H2087 | 0.8 | 0.566 | 0.614 | 0.247 | 0.219 | 0.146 | 1.34 | 0.955 | 0.747 | 1.19 | 0.886 | 0.751 | 0.916 | 0.692 | 0.739 | 0.18 | 0.163 | 0.142
NCI-H1734 | 0.396 | 0.243 | 0.194 | 0.278 | 0.238 | 0.205 | 0.943 | 0.699 | 0.551 | 0.582 | 0.464 | 0.32 | 0.461 | 0.307 | 0.389 | 0.54 | 0.362 | 0.288
EMC-BAC-2 | 0.261 | 0.231 | 0.21 | 0.441 | 0.38 | 0.311 | 0.726 | 0.611 | 0.608 | 0.759 | 0.663 | 0.505 | 0.514 | 0.465 | 0.432 | 0.569 | 0.571 | 0.436
LU99A | 0.482 | 0.331 | 0.267 | 0.396 | 0.24 | 0.183 | 0.908 | 0.71 | 0.346 | 0.492 | 0.439 | 0.277 | 0.303 | 0.242 | 0.265 | 0.5 | 0.367 | 0.22
